# From ChEMBL document CHEMBL1149548, “Synthesis, SAR, and X-ray structure of novel potent DPPIV inhibitors: oxadiazolyl ketones” (Bioorg Med Chem Lett, 2007)
# Assays:
# Dipeptidyl peptidase 8 = Dipeptidyl peptidase 8 (Homo sapiens, UniProt Q6V1X1); test: Inhibition of DPP8
# Dipeptidyl peptidase 2 = Dipeptidyl peptidase 2 (Homo sapiens, UniProt Q9UHL4); test: Inhibition of DPP2
# Rattus norvegicus [1] = test: Inhibition of basal plasma DPP4 activity in Sprague-Dawley rat at 1 mg/kg after 24 hrs; details: read-out: Inhibition
# [2] = Cmax in rat at 5 mg/kg, po; assay type: ADME, organism-based; design: dose 5 mg/kg, route oral; details: in vivo
# [3] = Bioavailability in rat at 5 mg/kg, po; assay type: ADME, organism-based; details: in vivo
# [4] = Bioavailability in dog at 5 mg/kg, po; assay type: ADME, organism-based, Canis lupus familiaris; details: in vivo
# [5] = Half life in dog at 5 mg/kg, po; assay type: ADME, organism-based, Canis lupus familiaris; design: dose 5 mg/kg, route oral; details: in vivo
# [6] = Half life in monkey at 5 mg/kg, po; assay type: ADME, organism-based, Macaca mulatta; design: dose 5 mg/kg, route oral; details: rhesus monkey, in vivo
# Rattus norvegicus [7] = test: Inhibition of basal plasma DPP4 activity in Sprague-Dawley rat at 10 mg/kg after 1 hr; details: read-out: Inhibition
# [8] = Cmax in monkey at 5 mg/kg, po; assay type: ADME, organism-based, Macaca mulatta; design: dose 5 mg/kg, route oral; details: rhesus monkey, in vivo
# [9] = Bioavailability in monkey at 5 mg/kg, po; assay type: ADME, organism-based, Macaca mulatta; details: rhesus monkey, in vivo
# [10] = Plasma clearance in dog at 5 mg/kg, iv or 5 mg/kg, po; assay type: ADME, organism-based, Canis lupus familiaris
# [11] = Plasma clearance in monkey at 5 mg/kg, iv or 5 mg/kg, po; assay type: ADME, organism-based, Macaca mulatta; details: rhesus monkey
# [12] = Plasma clearance in rat at 5 mg/kg, iv or 5 mg/kg, po; assay type: ADME, organism-based
# Rattus norvegicus [13] = test: Inhibition of basal plasma DPP4 activity in Sprague-Dawley rat at 1 mg/kg after 1 hr; details: read-out: Inhibition
# [14] = Volume of distribution at steady state in dog at 5 mg/kg, iv or 5 mg/kg, po; assay type: ADME, organism-based, Canis lupus familiaris; details: in vivo, read-out: Vdss
# Rattus norvegicus [15] = test: Inhibition of basal plasma DPP4 activity in Sprague-Dawley rat at 0.03 mg/kg after 1 hr; details: read-out: Inhibition
# Rattus norvegicus [16] = test: Inhibition of basal plasma DPP4 activity in Sprague-Dawley rat at 0.1 mg/kg after 1 hr; details: read-out: Inhibition
# Rattus norvegicus [17] = test: Inhibition of basal plasma DPP4 activity in Sprague-Dawley rat at 10 mg/kg after 24 hrs; details: read-out: Inhibition
# [18] = Half life in rat at 5 mg/kg, po; assay type: ADME, organism-based; design: dose 5 mg/kg, route oral; details: in vivo
# Rattus norvegicus [19] = test: Inhibition of basal plasma DPP4 activity in Sprague-Dawley rat at 0.1 mg/kg after 24 hrs; details: read-out: Inhibition
# [20] = Volume of distribution at steady state in rat at 5 mg/kg, iv or 5 mg/kg, po; assay type: ADME, organism-based; details: in vivo, read-out: Vdss
# Rattus norvegicus [21] = test: Inhibition of basal plasma DPP4 activity in Sprague-Dawley rat at 0.03 mg/kg after 24 hrs; details: read-out: Inhibition
# [22] = Volume of distribution at steady state in monkey at 5 mg/kg, iv or 5 mg/kg, po; assay type: ADME, organism-based, Macaca mulatta; details: rhesus monkey, in vivo, read-out: Vdss
# Dipeptidyl peptidase 8, sequence (Q6V1X1 whole entry): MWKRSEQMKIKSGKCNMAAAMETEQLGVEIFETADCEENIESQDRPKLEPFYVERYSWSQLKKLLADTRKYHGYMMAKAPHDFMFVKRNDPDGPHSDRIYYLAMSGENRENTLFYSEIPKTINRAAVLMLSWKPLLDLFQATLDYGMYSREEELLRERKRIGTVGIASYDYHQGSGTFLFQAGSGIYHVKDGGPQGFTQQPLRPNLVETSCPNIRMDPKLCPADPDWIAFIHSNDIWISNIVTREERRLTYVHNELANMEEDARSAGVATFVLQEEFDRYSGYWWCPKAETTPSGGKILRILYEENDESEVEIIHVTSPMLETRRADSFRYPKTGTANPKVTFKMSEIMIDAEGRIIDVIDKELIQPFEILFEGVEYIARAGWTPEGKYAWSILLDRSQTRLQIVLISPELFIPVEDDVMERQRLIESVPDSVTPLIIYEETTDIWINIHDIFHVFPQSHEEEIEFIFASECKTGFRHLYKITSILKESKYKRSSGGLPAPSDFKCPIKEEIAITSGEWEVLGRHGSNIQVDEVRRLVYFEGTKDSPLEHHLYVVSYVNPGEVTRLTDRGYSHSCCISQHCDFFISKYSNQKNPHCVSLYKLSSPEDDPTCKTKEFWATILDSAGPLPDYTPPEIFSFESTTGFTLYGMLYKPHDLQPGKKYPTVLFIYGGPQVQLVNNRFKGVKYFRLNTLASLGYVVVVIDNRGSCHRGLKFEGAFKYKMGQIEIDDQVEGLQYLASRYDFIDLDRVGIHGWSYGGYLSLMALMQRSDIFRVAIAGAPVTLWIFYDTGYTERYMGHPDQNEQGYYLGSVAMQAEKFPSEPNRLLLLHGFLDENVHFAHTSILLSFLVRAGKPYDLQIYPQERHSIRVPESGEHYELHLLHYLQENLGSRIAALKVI
smiles,measurement,setting,value
CC(C)(C)NCC(=O)N1CCC[C@H]1C(=O)c1noc(C2(C)CCCCC2)n1,IC50,Dipeptidyl peptidase 8,< 390 nM
same,IC50,Dipeptidyl peptidase 2,< 390 nM
CC(C)(C)NCC(=O)N1C[C@@H](F)C[C@H]1C(=O)c1nnc(C2CCCCC2)o1,IC50,Dipeptidyl peptidase 8,< 390 nM
same,IC50,Dipeptidyl peptidase 2,< 390 nM
CC(C)(C)NCC(=O)N1CCC[C@H]1C(=O)c1nnc(C(C)(C)C)o1,IC50,Dipeptidyl peptidase 2,> 10000 nM
CC(C)(C)NCC(=O)N1CCC[C@H]1C(=O)c1nnc(C2(C)CCCCC2)o1,IC50,Dipeptidyl peptidase 8,< 390 nM
same,IC50,Dipeptidyl peptidase 2,8660 nM
CC(C)(CO)NCC(=O)N1C[C@@H](F)C[C@H]1C(=O)c1nnc(C(C)(C)C)o1,inhibition in vivo at 1 mg/kg,Rattus norvegicus [1],50%
same,Cmax,[2],30 ng/mL
same,bioavailability,[3],39%
same,bioavailability,[4],87%
same,half-life,[5],1.47 h
same,half-life,[6],4.63 h
same,inhibition in vivo at 10 mg/kg,Rattus norvegicus [7],68%
same,Cmax,[8],210 ng/mL
same,bioavailability,[9],35%
same,clearance,[10],71 mL/min/kg
same,clearance,[11],18 mL/min/kg
same,clearance,[12],241 mL/min/kg
same,inhibition in vivo at 1 mg/kg,Rattus norvegicus [13],46%
same,Vd,[14],4.87 L/kg
same,inhibition in vivo at 0.03 mg/kg,Rattus norvegicus [15],66%
same,inhibition in vivo at 0.1 mg/kg,Rattus norvegicus [16],82%
same,inhibition in vivo at 10 mg/kg,Rattus norvegicus [17],74%
same,half-life,[18],4.15 h
same,inhibition in vivo at 0.1 mg/kg,Rattus norvegicus [19],82%
same,Vd,[20],14 L/kg
same,inhibition in vivo at 0.03 mg/kg,Rattus norvegicus [21],76%
same,Vd,[22],2.42 L/kg
same,IC50,Dipeptidyl peptidase 2,146000 nM
CC(C)(C)NCC(=O)N1CCC[C@H]1C(=O)c1noc(-c2ccc(F)cc2)n1,IC50,Dipeptidyl peptidase 8,< 390 nM
same,IC50,Dipeptidyl peptidase 2,< 390 nM
Cc1cc(C)c(-c2nnc(C(=O)[C@@H]3CCCN3C(=O)CNC(C)(C)C)o2)c(C)c1,IC50,Dipeptidyl peptidase 8,< 390 nM
same,IC50,Dipeptidyl peptidase 2,< 390 nM
CCC(C)(C)c1nnc(C(=O)[C@@H]2C[C@H](F)CN2C(=O)CNC(C)(C)C)o1,IC50,Dipeptidyl peptidase 8,< 390 nM
same,IC50,Dipeptidyl peptidase 2,97200 nM
